Experimental data taken from ChEMBL document CHEMBL5036341, “Design, synthesis and biological evaluation of aminopyrimidine derivatives bearing a 4,5,6,7-tetrahydrothieno [3,2-c]pyridine as potent EGFR inhibitors” (Eur J Med Chem, 2021).
Calls of active or inactive are those of the source. No cut-off for these calls is given here.

Key:
A549 [1] = assay: Inhibition of cell migration in human A549 cells measured after 12 to 36 hours by fluorescence microscopy based wound healing assay; assay type: functional; details: dose 1-5 µM, time 12-36 hrs
Homo sapiens [2] = species: Homo sapiens; assay: Selectivity ratio of IC50 for EGFR L858R/T790M double mutant (unknown origin) to IC50 for wildtype EGFR (unknown origin) measured by ELISA
[3] = Inhibition of EGFR L858R/T790M/C797S triple mutant (unknown origin) measured by ELISA; parameters: species or system Homo sapiens
A549 [4] = assay: Induction of apoptosis in human A549 cells assessed as chromatin contraction at 25 uM measured after 24 hrs by AO/EB staining based inverted fluorescence microscopic analysis; assay type: functional, cell-based
[5] = Inhibition of EGFR L858R/T790M double mutant (unknown origin) measured by ELISA; parameters: species or system Homo sapiens
A549 [6] = assay: Antiproliferative activity against human A549 cells assessed as reduction in cell growth incubated for 24 hrs by AO/EB staining based inverted fluorescence microscopic analysis; assay type: functional; details: dose 1-25 µM
A549 [7] = assay: Cytotoxicity against human A549 cells assessed as reduction in cell viability measured by MTT assay; assay type: functional, cell-based
[8] = molecular target: Epidermal growth factor receptor (Homo sapiens, UniProt P00533); assay: Inhibition of wild type EGFR (unknown origin) measured by ELISA
A-431 = assay: Cytotoxicity against human A-431 cells assessed as reduction in cell viability measured by MTT assay; assay type: functional, cell-based
NCI-H1975 [9] = assay: Cytotoxicity against human NCI-H1975 cells assessed as reduction in cell viability measured by MTT assay; assay type: functional, cell-based
Homo sapiens [10] = species: Homo sapiens; assay: Inhibition of EGFR L858R/T790M double mutant (unknown origin) measured at 1 uM by ELISA
Homo sapiens [11] = species: Homo sapiens; assay: Inhibition of EGFR L858R/T790M double mutant (unknown origin) measured at 0.1 uM by ELISA
NCI-H1975 [12] = assay: Induction of apoptosis in human NCI-H1975 cells assessed as live cells at 5 uM measured after 48 hrs by annexinV-FITC and propidium iodide double staining based flow cytometry analysis (reference value: 94.92 %); assay type: functional
NCI-H1975 [13] = assay: Induction of apoptosis in human NCI-H1975 cells assessed as late apoptotic cells at 1 uM measured after 48 hrs by annexinV-FITC and propidium iodide double staining based flow cytometry analysis (reference value: 1.56 %); assay type: functional
NCI-H1975 [14] = assay: Induction of apoptosis in human NCI-H1975 cells assessed as late apoptotic cells at 5 uM measured after 48 hrs by annexinV-FITC and propidium iodide double staining based flow cytometry analysis (reference value: 1.56 %); assay type: functional
NCI-H1975 [15] = assay: Induction of apoptosis in human NCI-H1975 cells assessed as necrotic cells at 0.2 uM measured after 48 hrs by annexinV-FITC and propidium iodide double staining based flow cytometry analysis (reference value: 0.28 %); assay type: functional
NCI-H1975 [16] = assay: Induction of apoptosis in human NCI-H1975 cells assessed as late apoptotic cells at 0.2 uM measured after 48 hrs by annexinV-FITC and propidium iodide double staining based flow cytometry analysis (reference value: 1.56 %); assay type: functional
NCI-H1975 [17] = assay: Induction of apoptosis in human NCI-H1975 cells assessed as necrotic cells at 5 uM measured after 48 hrs by annexinV-FITC and propidium iodide double staining based flow cytometry analysis (reference value: 0.28 %); assay type: functional
NCI-H1975 [18] = assay: Induction of apoptosis in human NCI-H1975 cells assessed as early apoptotic cells at 5 uM measured after 48 hrs by annexinV-FITC and propidium iodide double staining based flow cytometry analysis (reference value: 3.24 %); assay type: functional
NCI-H1975 [19] = assay: Induction of apoptosis in human NCI-H1975 cells assessed as early apoptotic cells at 0.2 uM measured after 48 hrs by annexinV-FITC and propidium iodide double staining based flow cytometry analysis (reference value: 3.24 %); assay type: functional
NCI-H1975 [20] = assay: Induction of apoptosis in human NCI-H1975 cells assessed as live cells at 0.2 uM measured after 48 hrs by annexinV-FITC and propidium iodide double staining based flow cytometry analysis (reference value: 94.92 %); assay type: functional
NCI-H1975 [21] = assay: Induction of apoptosis in human NCI-H1975 cells assessed as live cells at 1 uM measured after 48 hrs by annexinV-FITC and propidium iodide double staining based flow cytometry analysis (reference value: 94.92 %); assay type: functional
NCI-H1975 [22] = assay: Induction of apoptosis in human NCI-H1975 cells assessed as early apoptotic cells at 1 uM measured after 48 hrs by annexinV-FITC and propidium iodide double staining based flow cytometry analysis (reference value: 3.24 %); assay type: functional
NCI-H1975 [23] = assay: Induction of apoptosis in human NCI-H1975 cells assessed as necrotic cells at 1 uM measured after 48 hrs by annexinV-FITC and propidium iodide double staining based flow cytometry analysis (reference value: 0.28 %); assay type: functional

Epidermal growth factor receptor, sequence (P00533 whole entry): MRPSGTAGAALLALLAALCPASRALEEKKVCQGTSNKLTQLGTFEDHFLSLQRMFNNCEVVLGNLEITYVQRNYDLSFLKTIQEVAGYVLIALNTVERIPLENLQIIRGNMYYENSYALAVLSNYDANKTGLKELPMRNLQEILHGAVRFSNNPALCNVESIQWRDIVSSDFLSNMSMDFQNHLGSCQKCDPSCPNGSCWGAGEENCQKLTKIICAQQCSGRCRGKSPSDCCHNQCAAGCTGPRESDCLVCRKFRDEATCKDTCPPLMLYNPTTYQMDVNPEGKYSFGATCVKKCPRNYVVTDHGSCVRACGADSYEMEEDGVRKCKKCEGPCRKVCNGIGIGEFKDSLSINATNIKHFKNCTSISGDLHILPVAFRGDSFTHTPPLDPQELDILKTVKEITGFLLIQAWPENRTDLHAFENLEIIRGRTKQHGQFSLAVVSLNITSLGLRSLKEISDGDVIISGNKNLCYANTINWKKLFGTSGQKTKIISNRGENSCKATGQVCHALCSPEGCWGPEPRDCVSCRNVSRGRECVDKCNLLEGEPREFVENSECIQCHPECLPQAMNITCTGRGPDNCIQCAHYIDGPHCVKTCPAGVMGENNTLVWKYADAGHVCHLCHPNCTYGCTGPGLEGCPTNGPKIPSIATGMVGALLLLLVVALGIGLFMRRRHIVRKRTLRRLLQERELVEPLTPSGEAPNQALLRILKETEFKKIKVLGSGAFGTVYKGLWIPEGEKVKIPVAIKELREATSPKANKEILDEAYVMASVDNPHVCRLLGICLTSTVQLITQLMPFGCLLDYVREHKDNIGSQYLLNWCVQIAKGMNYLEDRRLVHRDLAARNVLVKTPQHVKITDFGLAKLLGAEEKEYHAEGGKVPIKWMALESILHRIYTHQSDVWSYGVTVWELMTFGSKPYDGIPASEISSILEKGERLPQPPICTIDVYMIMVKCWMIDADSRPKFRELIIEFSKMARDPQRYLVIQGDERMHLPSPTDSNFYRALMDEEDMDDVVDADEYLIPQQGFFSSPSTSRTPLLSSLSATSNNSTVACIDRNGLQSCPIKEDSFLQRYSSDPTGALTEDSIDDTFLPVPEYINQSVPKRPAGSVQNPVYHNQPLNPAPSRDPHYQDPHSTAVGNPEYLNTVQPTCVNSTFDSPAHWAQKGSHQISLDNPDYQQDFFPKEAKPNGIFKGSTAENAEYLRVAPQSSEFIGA

SMILES | IC50 (A549 [7]) [nM] | IC50 (A-431) [nM] | IC50 (NCI-H1975 [9]) [nM] | inhibition (Homo sapiens [10]) [%] | inhibition (Homo sapiens [11]) [%] | other results
C=C(Cl)C(=O)Nc1cc(Nc2ncc(Cl)c(N3CCc4sccc4C3)n2)c(OC)cc1N(C)CCN(C)C | 654 | 13700 | 92 | – | – | inhibition (A549 [1]): Dose-Dependent Effect; Ratio IC50 (Homo sapiens [2]): 26.7; IC50 [3]: 466 nM; Activity (A549 [4]): Active; IC50 [5]: 3.6 nM; Activity (A549 [6]): Dose-Dependent Effect; IC50 [8]: 96.3 nM
C/C=C/C(=O)Nc1cc(Nc2ncc(Cl)c(N3CCc4sccc4C3)n2)c(OC)cc1N(C)CCN(C)C | 251 | 152 | 133 | – | – | Ratio IC50 (Homo sapiens [2]): 2.9; IC50 [5]: 12.1 nM; IC50 [8]: 353 nM
CCN(CC)C/C=C/C(=O)Nc1ccc(OC)c(Nc2nccc(N3CCc4sccc4C3)n2)c1 | – | – | – | 77.5 | 36.8 | –
CCC(=O)Nc1ccc(OC)c(Nc2ncc(Cl)c(N3CCc4sccc4C3)n2)c1 | 31300 | > 200000 | 15200 | – | – | –
COc1cc(NC(=O)CN2CCN(C)CC2)ccc1Nc1nccc(N2CCc3sccc3C2)n1 | – | – | – | 58.3 | 16.3 | –
CCN1CCN(CC(=O)Nc2ccc(Nc3nccc(N4CCc5sccc5C4)n3)c(OC)c2)CC1 | – | – | – | 36.6 | 9.9 | –
C=CC(=O)Nc1cc(Nc2nccc(N3CCc4sccc4C3)n2)c(OC)cc1N1CCOCC1 | – | – | – | 50.6 | 20.9 | –
COc1cc(NC(=O)CN(C)CCN(C)C)ccc1Nc1nccc(N2CCc3sccc3C2)n1 | – | – | – | 69.7 | 20.9 | –
COc1cc(NC(=O)CN2CCC(C)CC2)ccc1Nc1nccc(N2CCc3sccc3C2)n1 | – | – | – | 26.1 | 4.5 | –
C=CC(=O)Nc1ccc(OC)c(Nc2ncc(Cl)c(N3CCc4sccc4C3)n2)c1 | 6910 | 90900 | 786 | – | – | –
C=CC(=O)Nc1cc(Nc2nccc(-c3cn(C)c4ccccc34)n2)c(OC)cc1N(C)CCN(C)C [OSIMERTINIB] | – | – | […] | 99.5 | 97.3 | IC50 [3]: 129 nM; IC50 [5]: 3.4 nM
C=CC(=O)Nc1cc(Nc2ncc(Cl)c(N3CCc4sccc4C3)n2)c(OC)cc1N1CCN(C)CC1 | 1560 | > 50000 | 197 | – | – | Ratio IC50 (Homo sapiens [2]): > 13.6; IC50 [3]: 659 nM; IC50 [5]: 294 nM; IC50 [8]: > 4000 nM
COc1cc(NC(=O)CN2CCOCC2)ccc1Nc1nccc(N2CCc3sccc3C2)n1 | – | – | – | 13.9 | 3.2 | –
CCC(=O)Nc1cc(Nc2nccc(N3CCc4sccc4C3)n2)c(OC)cc1N(C)CCN(C)C | – | – | – | 82.2 | 67.7 | –
COc1ccc(NC(=O)/C=C/CN(C)C)cc1Nc1nccc(N2CCc3sccc3C2)n1 | – | – | – | 80.1 | 42.2 | –
C=CC(=O)Nc1cc(Nc2nccc(N3CCc4sccc4C3)n2)c(OC)cc1N1CCCC1 | – | – | – | 43.5 | 14.9 | –
CCC(=O)Nc1cc(Nc2ncc(Cl)c(N3CCc4sccc4C3)n2)c(OC)cc1N(C)CCN(C)C | 460 | 2190 | 86 | 99.2 | 97.9 | inhibition (A549 [1]): Dose-Dependent Effect; Activity (NCI-H1975 [12]): 71.42%; Ratio IC50 (Homo sapiens [2]): 42.5; Activity (NCI-H1975 [13]): 4.98%; Activity (NCI-H1975 [14]): 11.42%; Activity (NCI-H1975 [15]): 0.51%; IC50 [3]: 360 nM; Activity (NCI-H1975 [16]): 3.44%; Activity (NCI-H1975 [17]): 1.25%; Activity (A549 [4]): Active; IC50 [5]: 4 nM; Activity (NCI-H1975 [18]): 15.91%; Activity (A549 [6]): Dose-Dependent Effect; Activity (NCI-H1975 [19]): 5.23%; Activity (NCI-H1975 [20]): 90.82%; IC50 [8]: 170 nM; Activity (NCI-H1975 [21]): 86.69%; Activity (NCI-H1975 [22]): 7.49%; Activity (NCI-H1975 [23]): 0.84%
C=CC(=O)Nc1cc(Nc2nccc(N3CCc4sccc4C3)n2)c(OC)cc1N(C)C | – | – | – | 18.2 | 2.3 | –
C=CC(=O)Nc1cc(Nc2nccc(N3CCc4sccc4C3)n2)c(OC)cc1N1CCN(C)CC1 | – | – | – | 56.5 | 33.5 | –
COc1cc(NC(=O)CN(C)C)ccc1Nc1nccc(N2CCc3sccc3C2)n1 | – | – | – | 22.5 | 5 | –
C=CC(=O)Nc1cc(Nc2nccc(N3CCc4sccc4C3)n2)c(OC)cc1N(CC)CC | – | – | – | 42.6 | 13.5 | –
C=CC(=O)Nc1cc(Nc2nccc(N3CCc4sccc4C3)n2)c(OC)cc1N(C)CCN(C)C | – | – | – | 76.3 | 54.1 | –
C=CC(=O)Nc1cc(Nc2nccc(N3CCc4sccc4C3)n2)c(OC)cc1N1CCN(CC)CC1 | – | – | – | 15.8 | 5.4 | –
COc1cc(N(C)CCN(C)C)c(NC(=O)/C=C/C(C)C)cc1Nc1ncc(Cl)c(N2CCc3sccc3C2)n1 | 4590 | 21300 | 472 | – | – | –
COc1cc(N(C)CCN(C)C)c(NC(=O)C=C(C)C)cc1Nc1ncc(Cl)c(N2CCc3sccc3C2)n1 | 5100 | > 50000 | 280 | – | – | IC50 [5]: 16.3 nM
CCN(CC)CC(=O)Nc1ccc(Nc2nccc(N3CCc4sccc4C3)n2)c(OC)c1 | – | – | – | 20.3 | 3.6 | –
COc1cc(NC(=O)CN2CCN(CCO)CC2)ccc1Nc1nccc(N2CCc3sccc3C2)n1 | – | – | – | 45.2 | 10.9 | –
C=CC(=O)Nc1cc(Nc2ncc(Cl)c(N3CCc4sccc4C3)n2)c(OC)cc1N(C)CCN(C)C | 166 | 5490 | 242 | 97 | 85 | Ratio IC50 (Homo sapiens [2]): 7; IC50 [5]: 3.9 nM; IC50 [8]: 6.4 nM
